Data on three compounds can be found in patent US8722626B2, “Method for controlling fibrosis and other pathological deposits in tissues comprising administering a GHRP-6 composition” (Centro de Ingenieria Genetica y Biotecnologia, priority 2006, dated 2014).

Square brackets hold non-standard residues; d marks the D form. Ends that are not written are not given here. Peptide text beside a SMILES is read from it. * marks the point of attachment. dTrp(2-Me) = Cc1[nH]c2ccccc2c1C[C@@H](N)C(=O)O; Octanoyl = CCCCCCCC(=O)*

Experiment [1] concerns transgenic mice over-expressing one mutated form of the NOTCH 3 gene. Description: Dementia of vascular origin: transgenic mice over-expressing mutated NOTCH 3 gene (CADASIL model, Example 6). Format: in vivo, mouse. Also on record: SODt (oxidative stress marker) / Cabalase (oxidative stress marker) / HPT (oxidative stress marker) / MDA (oxidative stress marker): unit not given here. The conditions noted are these: 100 μg/kg i.p. twice a week, 16 weeks; for Cabalase (oxidative stress marker) / Cerebral Myo-inositol / HPT (oxidative stress marker) / MDA (oxidative stress marker) / SODt (oxidative stress marker): brain; for No. of blood vessels positive to Congo Red / No. of blood vessels positive to Nissl / No. of hemorrhagic foci. / No. of subcortical infarctions.: cerebral tissues. How it is done: This experiment was conducted to evaluate the efficacy of pharmaceutical compositions indistinctly containing one of the peptides GHRP-6, GHRP-2, hexarelin or ghrelin on the central neurofunctional involution process in transgenic mice over-expressing one mutated form of the NOTCH 3 gene in blood vessel smooth muscle cells. These animals develop in terms of months an arteriopathy similar to that of the CASADIL disease, referred to the descriptive memory, and is occurring as one of the main causes of vascular dementia. In these animals, vascular lesions also include retinal-cerebral, cerebral and cochlear vasculopathies. The beta-amiloid material present in the brain and blood vessels, the deposit of osmophilic granular material in brain and meningeal artery walls and their reduced lumen are histopathologically relevant. White-pale zones, microinfarction and hemorrhagic foci zones appear in the brain and its main nervous trunks.
Eighteen- to twenty-months-old male mice were employed when evidenced the symptoms of the disease. The animals were randomly assigned to the following experimental treatment groups: • A—Placebo group receiving the physiological saline solution. • B—Group receiving GHRP-6 at a 100 μg/kg dosage. • C—Group receiving GHRP-2 at a 100 μg/kg dosage. • D—Group receiving Ghrelin at a 100 μg/kg dosage. • E—Group receiving Hexarelin at a 100 μg/kg dosage.
Treatments were applied twice a week during 16 weeks by intraperitoneal route. When treatments concluded, autopsy studies were conducted irrespective of the clinical improvement evidenced in a great number of animals treated. Brain tissue samples including meningeal tissues were collected for biochemical and histopathological determinations. The animals received anesthesia overdosed and subjected to intra-cardiac perfusion with cold physiological saline solution to wash off the blood present in the encephala. The encephala were extracted and one encephalon was frozen in dry-ice and the other was fixed in 4% para-formaldehyde neutral. Samples were cryo-sliced at 10 μm and slices were stained with hematoxylin/eosin, Congo Red, or incubated with an antibody specific for the beta-amiloid protein. Morphometric procedures were carried out by microscopic imaging capture by a camera connected to the microscope, and the images were analyzed with the DIGIPAT software.
Number of fibrillar deposits of beta-amiloid in blood vessels.
Number of sub-cortical infarctions.
Number of sub-cortical hemorrhages.
Brain concentration of myo-inositol as indicator of aging and brain metabolism deterioration (μmol/g of tissue).
Brain oxidative stress markers.

Experiment [2] relates to human keloid fragments xeno-transplanted in athymic mice. Description: Human keloid fragments xeno-transplanted into athymic mice (Example 7). Format: in vivo, mouse. The following applies: for No. of fields positive to collagen-specific staining: Picrosirius red and trichromic Masson's staining, 4× and 10× averaged; for No. of fields positive to collagen-specific staining / No. of microscopic fields with mast cells (20X magnif.): infiltrated once every 24 hrs during 7 days; for No. of microscopic fields with mast cells (20X magnif.): aniline blue staining; for Hydroxiproline content in the tissue / Wet weight of the graft collected: infiltrated at the edges in the implants once every 24 hrs during 7 days, 5 micrograms to 1 milligram. The source says:
To study the effect of peptides GHRP-6, GHRP-2, Hexarelin and/or Ghrelin in eradicating the pathological deposits of physiological material in the skin, human keloid fragments were xeno-transplanted into the dorsal region in athymic mice. After 72 hrs of evolution, to corroborate grafting and viability of xeno-transplants, the animals (N=6) were randomly distributed into the following experimental groups: • A—Saline control group (vehicle of the active principles). • B—Group receiving GHRP-6. • C—Group receiving GHRP-2. • D—Group receiving Ghrelin. • E—Group receiving Hexarelin. • Treatments were applied once every 24 hrs during 7 days. The substances were infiltrated at the edges in the implants, for local bioavailability of the active principles, at dosages from 5 micrograms to 1 milligram. After the treatment period, the animals were sacrificed and the implants extracted to evaluate the pharmacological response to every substance. Samples were weighed and fragmented for histological studies and biochemical determinations of collagen. The fragments for histological studies were fixed in 10% formalin neutral, and those fragments for biochemical analyses were stored at −70° C. • The parameters studied were: • a—Wet weight of the graft collected. • b—Hydroxiproline content in the tissue. • c—Number of microscopic fields with tissue positive to Picrosirius red staining and trichromic Masson's staining.

Consider `Cc1[nH]c2ccccc2c1C[C@@H](NC(=O)[C@@H](N)Cc1cnc[nH]1)C(=O)N[C@@H](C)C(=O)N[C@@H](Cc1c[nH]c2ccccc12)C(=O)N[C@H](Cc1ccccc1)C(=O)N[C@@H](CCCCN)C(N)=O` [Hexarelin] (H-H[dTrp(2-Me)]AW[dF]K-NH2), for which, in experiment [1], the “Cabalase (oxidative stress marker)” value is on record as 51.19 ± 7.84, the “Cerebral Myo-inositol” value is 11.88 ± 2.71 μmol/g of tissue, the “HPT (oxidative stress marker)” value was determined as 54.3 ± 11.87 and the “MDA (oxidative stress marker)” value worked out at 0.284 ± 0.01. In experiment [1], the “SODt (oxidative stress marker)” value turned out to be 10814.68 ± 33.08, the “No. of blood vessels positive to Congo Red” value was 15.24 ± 1.24, the “No. of blood vessels positive to Nissl” value turned out to be 11.36 ± 6.4 and the “No. of hemorrhagic foci.” value is listed as 14.61 ± 3.31. Also, the “No. of subcortical infarctions.” value in experiment [1] amounted to 27.11 ± 3.55. Besides, in experiment [2], the “No. of fields positive to collagen-specific staining” value (“No. of fields positive” for short) was determined as 12.35, the “No. of microscopic fields with mast cells (20X magnif.)” value (shortened to “No. of microscopic fields”) stood at 10.18 ± 2.98, the “Hydroxiproline content in the tissue” value worked out at 88.59 ± 6.58 µg/g and the “Wet weight of the graft collected” value is on record as 6.25 ± 1.73 a grams.

With “Ghrelin: secretagogue peptide; active principle of the pharmaceutical composition (GSS(Octanoyl)FLSPEHQRVQQRKESKKPPAKLQPR; ends and bridges not checked; UniProt Q9UBU3 24-51, looked up)”, in experiment [1], the “Cabalase (oxidative stress marker)” value worked out at 44.67 ± 11.58, the “Cerebral Myo-inositol” value is 14.04 ± 3.85 μmol/g of tissue, the “HPT (oxidative stress marker)” value turned out to be 142.16 ± 10.01 and the “MDA (oxidative stress marker)” value was determined as 0.261 ± 0.03. Further, in experiment [1], the “SODt (oxidative stress marker)” value came to 12290.9 ± 60.32, the “No. of blood vessels positive to Congo Red” value came out at 17.67 ± 2.26, the “No. of blood vessels positive to Nissl” value is 11.27 ± 4.61 and the “No. of hemorrhagic foci.” value turned out to be 13.06 ± 2.77. In addition, the “No. of subcortical infarctions.” value in experiment [1] turned out to be 26.9 ± 4.27. Besides, in experiment [2], the “No. of fields positive” value turned out to be 11.27, the “No. of microscopic fields” value is 10.71 ± 4.57, the “Hydroxiproline content in the tissue” value is 85.23 ± 4.11 µg/g and the “Wet weight of the graft collected” value was found to be 6.67 ± 1.53 a grams.

For GHRP-2, in experiment [1], the “Cabalase (oxidative stress marker)” value was found to be 48.23 ± 14.25, the “Cerebral Myo-inositol” value is 14.65 ± 4.38 μmol/g of tissue, the “HPT (oxidative stress marker)” value is on record as 117 ± 13.55 and the “MDA (oxidative stress marker)” value came to 0.302 ± 0.01. Besides, in experiment [1], the “SODt (oxidative stress marker)” value was determined as 11065.49 ± 46.29, the “No. of blood vessels positive to Congo Red” value amounted to 18.26 ± 4.57, the “No. of blood vessels positive to Nissl” value is recorded as 13.8 ± 6.76 and the “No. of hemorrhagic foci.” value came to 11.79 ± 4.25. Further, the “No. of subcortical infarctions.” value in experiment [1] stood at 30.13 ± 5.72. Besides, in experiment [2], the “No. of fields positive” value is reported as 18.12, the “No. of microscopic fields” value was determined as 11.17 ± 3.33, the “Hydroxiproline content in the tissue” value was determined as 84.17 ± 7.75 µg/g and the “Wet weight of the graft collected” value was 7.14 ± 1.02 a grams.
